Results as given in patent US20230406864A1, “7-AZOLE SUBSTITUTED 2-AMINOQUINAZOLINE INHIBITORS OF HPK1” (MERCK SHARP & DOHME LLC, priority 2020, published 2023).

These compounds were tested against T1, Human HPK1, catalytic domain (Homo sapiens, UniProt Q92918) (assay: HPK1-SLP76 TR-FRET assay). Conditions: HPK1 kinase domain 0.075 nM; full length SLP-76 10 nM; ATP 10 μM; 30 min preincubation; 60 min reaction; room temperature.
T1 construct: purchased Cama (so in the source)
T1 sequence (Q92918 1-346): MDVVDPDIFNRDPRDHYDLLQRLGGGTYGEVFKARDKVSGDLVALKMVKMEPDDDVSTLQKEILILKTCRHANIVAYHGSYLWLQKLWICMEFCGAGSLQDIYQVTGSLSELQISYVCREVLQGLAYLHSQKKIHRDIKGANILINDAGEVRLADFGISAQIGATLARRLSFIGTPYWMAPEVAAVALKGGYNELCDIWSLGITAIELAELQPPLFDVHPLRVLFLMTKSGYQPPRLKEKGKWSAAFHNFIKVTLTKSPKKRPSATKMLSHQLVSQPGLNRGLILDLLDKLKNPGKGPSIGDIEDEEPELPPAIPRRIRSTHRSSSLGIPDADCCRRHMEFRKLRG
Assay type: biochemical
An IC50 of 0.15 nM was found for `Cc1c(-c2cc3nc(Nc4cnn(C5CCN(C)C5=O)c4)ncc3c(N)c2F)cnc2c1NCCO2` (single isomer, unassigned) [Example 2-19, (S or R)-3-(4-{[5-amino-6-fluoro-7-(8-methyl-2,3-dihydro-1H-pyrido[2,3-b][1,4]oxazin-7-yl)quinazolin-2-yl]amino}-1H-pyrazol-1-yl)-1-methylpyrrolidin-2-one] in this work. An IC50 of 0.35 nM was found for `Cc1c(-c2cc3nc(Nc4cnn(C5CCN(C)C5=O)c4)ncc3c(N)c2F)cnc2c1NCCO2` (single isomer, unassigned) [Example 2-21, (S or R)-3-(4-{[5-amino-6-fluoro-7-(8-methyl-2,3-dihydro-1H-pyrido[2,3-b][1,4]oxazin-7-yl)quinazolin-2-yl]amino}-1H-pyrazol-1-yl)-1-methylpyrrolidin-2-one] in this work. An IC50 of 1.2 nM was found for `Cc1c(-c2ccc3cnc(Nc4cnn(C5COC5)c4)nc3c2)cnc2c1NCCO2` [Example 1-1, 7-(8-methyl-2,3-dihydro-1H-pyrido[2,3-b][1,4]oxazin-7-yl)-N-[1-(oxetan-3-yl)-1H-pyrazol-4-yl]quinazolin-2-amine] in this work. An IC50 of 0.22 nM was found for `Cc1c(-c2ccc3cnc(Nc4cnn(C5CC6(C5)CN(C5(C)COC5)C6)c4)nc3c2)cnc2c1NCCO2` [Example 1-2, 7-(8-methyl-2,3-dihydro-1H-pyrido[2,3-b][1,4]oxazin-7-yl)-N-{1-[2-(3-methyloxetan-3-yl)-2-azaspiro[3.3]heptan-6-yl]-1H-pyrazol-4-yl}quinazolin-2-amine] in this work. An IC50 of 0.26 nM was found for `CCC(=O)N1CC(n2cc(Nc3ncc4ccc(-c5cnc6c(c5C)NCCO6)cc4n3)cn2)C1` [Example 1-3, 1-[3-(4-{[7-(8-methyl-2,3-dihydro-1H-pyrido[2,3-b][1,4]oxazin-7-yl)quinazolin-2-yl]amino}-1H-pyrazol-1-yl)azetidin-1-yl]propan-1-one] in this work. An IC50 of 5.3 nM was found for `Cc1c(-c2ccc3cnc(Nc4cc5n(n4)CC(=O)N(C)CC54CC4)nc3c2)cnc2c1NCCO2` [Example 1-4, 6′-methyl-2′-{[7-(8-methyl-2,3-dihydro-1H-pyrido[2,3-b][1,4]oxazin-7-yl)quinazolin-2-yl]amino}-5′,6′-dihydrospiro[cyclopropane-1,4′-pyrazolo[1,5-d][1,4]diazepin]-7′(8′H)-one] in this work. An IC50 of 0.71 nM was found for `Cc1c(-c2ccc3cnc(Nc4cnn(C)c4)nc3c2)cnc2c1NCCO2` [Example 1-5, 7-(8-methyl-2,3-dihydro-1H-pyrido[2,3-b][1,4]oxazin-7-yl)-N-(1-methyl-1H-pyrazol-4-yl)quinazolin-2-amine] in this work. An IC50 of 0.34 nM was found for `Cc1c(-c2ccc3cnc(Nc4cc5n(n4)CCN(C(C)C)C(=O)C5)nc3c2)cnc2c1NCCO2` [Example 1-7, 2-{[7-(8-methyl-2,3-dihydro-1H-pyrido[2,3-b][1,4]oxazin-7-yl)quinazolin-2-yl]amino}-6-(propan-2-yl)-7,8-dihydro-4H-pyrazolo[1,5-d][1,4]diazepin-5(6H)-one] in this work. An IC50 of 0.675 nM was found for `Cc1c(-c2ccc3cnc(Nc4cc5n(n4)CCN(CC(C)(C)O)C(=O)C5)nc3c2)cnc2c1NCCO2` [Example 1-8, 6-(2-hydroxy-2-methylpropyl)-2-((7-(8-methyl-2,3-dihydro-1H-pyrido[2,3-b][1,4]oxazin-7-yl)quinazolin-2-yl)amino)-7,8-dihydro-4H-pyrazolo[1,5-d][1,4]diazepin-5(6H)-one] in this work. An IC50 of 0.42 nM was found for `CCC(=O)N1CC(n2cc(Nc3ncc4c(N)c(F)c(-c5cnc6c(c5C)NCCO6)cc4n3)cn2)C1` [Example 2-1, 1-[3-(4-{[5-amino-6-fluoro-7-(8-methyl-2,3-dihydro-1H-pyrido[2,3-b][1,4]oxazin-7-yl)quinazolin-2-yl]amino}-1H-pyrazol-1-yl)azetidin-1-yl]propan-1-one] in this work. An IC50 of 0.14 nM was found for `Cc1c(-c2cc3nc(Nc4cnn(C5CC6(C5)CN(C5(C)COC5)C6)c4)ncc3c(N)c2F)cnc2c1NCCO2` [Example 2-2, 6-fluoro-7-(8-methyl-2,3-dihydro-1H-pyrido[2,3-b][1,4]oxazin-7-yl)-N~2~-{1-[2-(3-methyloxetan-3-yl)-2-azaspiro[3.3]heptan-6-yl]-1H-pyrazol-4-yl}quinazoline-2,5-diamine] in this work. An IC50 of 0.12 nM was found for `Cc1c(-c2cc3nc(Nc4cnn(C5CCN(C6(C)COC6)CC5)c4)ncc3c(N)c2F)cnc2c1NCCO2` [Example 2-3, 6-fluoro-7-(8-methyl-2,3-dihydro-1H-pyrido[2,3-b][1,4]oxazin-7-yl)-N~2~-{1-[1-(3-methyloxetan-3-yl)piperidin-4-yl]-1H-pyrazol-4-yl}quinazoline-2,5-diamine] in this work. An IC50 of 0.47 nM was found for `Cc1c(-c2cc3nc(Nc4cnn(C5CC6(CNC6)C5)c4)ncc3c(N)c2F)cnc2c1NCCO2` [Example 2-4, N~2~-[1-(2-azaspiro[3.3]heptan-6-yl)-1H-pyrazol-4-yl]-6-fluoro-7-(8-methyl-2,3-dihydro-1H-pyrido[2,3-b][1,4]oxazin-7-yl)quinazoline-2,5-diamine] in this work. An IC50 of 0.29 nM was found for `Cc1c(-c2cc3nc(Nc4cnn(C5CNC5)c4)ncc3c(N)c2F)cnc2c1NCCO2` [Example 2-5, N~2~-[1-(azetidin-3-yl)-1H-pyrazol-4-yl]-6-fluoro-7-(8-methyl-2,3-dihydro-1H-pyrido[2,3-b][1,4]oxazin-7-yl)quinazoline-2,5-diamine] in this work. An IC50 of 0.14 nM was found for `Cc1c(-c2cc3nc(Nc4cnn(CC5CC5)c4)ncc3c(N)c2F)cnc2c1NCCO2` [Example 2-6, N~2~-[1-(cyclopropylmethyl)-1H-pyrazol-4-yl]-6-fluoro-7-(8-methyl-2,3-dihydro-1H-pyrido[2,3-b][1,4]oxazin-7-yl)quinazoline-2,5-diamine] in this work. An IC50 of 0.26 nM was found for `Cc1c(-c2cc3nc(Nc4cnn(CC(F)(F)F)c4)ncc3c(N)c2F)cnc2c1NCCO2` [Example 2-7, 6-fluoro-7-(8-methyl-2,3-dihydro-1H-pyrido[2,3-b][1,4]oxazin-7-yl)-N~2~-[1-(2,2,2-trifluoroethyl)-1H-pyrazol-4-yl]quinazoline-2,5-diamine] in this work. An IC50 of 0.088 nM was found for `Cc1c(-c2cc3nc(Nc4cnn(C5(C)CC5)c4)ncc3c(N)c2F)cnc2c1NCCO2` [Example 2-8, 6-fluoro-N~2~-[1-(1-methylcyclopropyl)-1H-pyrazol-4-yl]-7-(8-methyl-2,3-dihydro-1H-pyrido[2,3-b][1,4]oxazin-7-yl)quinazoline-2,5-diamine] in this work. An IC50 of 0.14 nM was found for `Cc1c(-c2cc3nc(Nc4cnn(C5CC5)c4)ncc3c(N)c2F)cnc2c1NCCO2` [Example 2-9, N~2~-(1-cyclopropyl-1H-pyrazol-4-yl)-6-fluoro-7-(8-methyl-2,3-dihydro-1H-pyrido[2,3-b][1,4]oxazin-7-yl)quinazoline-2,5-diamine] in this work. An IC50 of 0.13 nM was found for `Cc1c(-c2cc3nc(Nc4cnn(C)c4)ncc3c(N)c2F)cnc2c1NCCO2` [Example 2-10, 6-fluoro-7-(8-methyl-2,3-dihydro-1H-pyrido[2,3-b][1,4]oxazin-7-yl)-N~2~-(1-methyl-1H-pyrazol-4-yl)quinazoline-2,5-diamine] in this work. An IC50 of 0.071 nM was found for `Cc1c(-c2cc3nc(Nc4cnn(C5CCNCC5)c4)ncc3c(N)c2F)cnc2c1NCCO2` [Example 2-11, 6-fluoro-7-(8-methyl-2,3-dihydro-1H-pyrido[2,3-b][1,4]oxazin-7-yl)-N~2~-[1-(piperidin-4-yl)-1H-pyrazol-4-yl]quinazoline-2,5-diamine] in this work. An IC50 of 2.8 nM was found for `Cc1c(-c2cc3nc(Nc4cnn(Cc5ccccc5)c4)ncc3c(N)c2F)cnc2c1NCCO2` [Example 2-12, N~2~-(1-benzyl-1H-pyrazol-4-yl)-6-fluoro-7-(8-methyl-2,3-dihydro-1H-pyrido[2,3-b][1,4]oxazin-7-yl)quinazoline-2,5-diamine] in this work. An IC50 of 0.77 nM was found for `Cc1c(-c2cc3nc(Nc4cnn(CC(C)C)c4)ncc3c(N)c2F)cnc2c1NCCO2` [Example 2-13, 6-fluoro-7-(8-methyl-2,3-dihydro-1H-pyrido[2,3-b][1,4]oxazin-7-yl)-N~2~-[1-(2-methylpropyl)-1H-pyrazol-4-yl]quinazoline-2,5-diamine] in this work. An IC50 of 0.16 nM was found for `Cc1c(-c2cc3nc(Nc4cnn(C(C)C)c4)ncc3c(N)c2F)cnc2c1NCCO2` [Example 2-14, 6-fluoro-7-(8-methyl-2,3-dihydro-1H-pyrido[2,3-b][1,4]oxazin-7-yl)-N~2~-[1-(propan-2-yl)-1H-pyrazol-4-yl]quinazoline-2,5-diamine] in this work. An IC50 of 0.22 nM was found for `COC(=O)C12CC(n3cc(Nc4ncc5c(N)c(F)c(-c6cnc7c(c6C)NCCO7)cc5n4)cn3)(C1)C2` [Example 2-15, methyl 3-(4-{[5-amino-6-fluoro-7-(8-methyl-2,3-dihydro-1H-pyrido[2,3-b][1,4]oxazin-7-yl)quinazolin-2-yl]amino}-1H-pyrazol-1-yl)bicyclo[1.1.1]pentane-1-carboxylate] in this work. An IC50 of 0.51 nM was found for `CCn1ncc(Nc2ncc3c(N)c(F)c(-c4cnc5c(c4C)NCCO5)cc3n2)c1C` [Example 2-16, N~2~-(1-ethyl-5-methyl-1H-pyrazol-4-yl)-6-fluoro-7-(8-methyl-2,3-dihydro-1H-pyrido[2,3-b][1,4]oxazin-7-yl)quinazoline-2,5-diamine] in this work. An IC50 of 0.38 nM was found for `Cc1cc(Nc2ncc3c(N)c(F)c(-c4cnc5c(c4C)NCCO5)cc3n2)sn1` [Example 2-17, 6-fluoro-7-(8-methyl-2,3-dihydro-1H-pyrido[2,3-b][1,4]oxazin-7-yl)-N~2~-(3-methyl-1,2-thiazol-5-yl)quinazoline-2,5-diamine] in this work. An IC50 of 2 nM was found for `Cc1c(-c2cc3nc(Nc4cnn(CC(C)(C)O)c4Cl)ncc3c(N)c2F)cnc2c1NCCO2` [Example 2-18, 1-(4-{[5-amino-6-fluoro-7-(8-methyl-2,3-dihydro-1H-pyrido[2,3-b][1,4]oxazin-7-yl)quinazolin-2-yl]amino}-5-chloro-1H-pyrazol-1-yl)-2-methypropan-2-ol] in this work.
